Columns and labels:
HIV-1 IIIB = test: Screening for virucidal activity against HIV-1 IIIB, MAGI cell assay; conditions: for inhibition of HIV-1 IIIB (percent virus inactivated), screening assay: 50 μg/ml, 1 hr in the dark, diluted 10-fold, MAGI cells, without removal of free compound; for activity against HIV in words: MAGI screening assay, HIV-1 IIIB
HSV-1(F) or HSV-2(G) = test: In vitro HSV inactivation, plaque assay on Vero cells; type: cell-based, herpes simplex virus; conditions: room temperature, in the dark, up to 60 minutes
Experimental: Either HSV-1(F) or HSV-2(G) (10^7 pfu) was mixed with 1 ml of porphyrin at the concentration indicated in Dulbecco's modified Eagle's medium (DME) with 1% newborn calf serum. All assays were performed in duplicate. All tubes were wrapped in foil to keep out light, and ambient room light was reduced as much as was practicable. Virus and porphyrin were incubated together at room temperature for times up to 60 minutes (Table 2). Following incubation, 10 fold serial dilutions were performed in DME with 1% newborn serum, using tubes wrapped in foil. Virus was diluted 20,000 fold and plated on Vero cells. Following a 2 hour incubation with the cells, the inoculum was removed and cells were overlaid with DME with 1% newborn calf serum and 0.2% human gamma globulin. Cells were fixed and stained, and plaques counted, 2 days after infection.

[1] = molecular target: T1, HIV-1 Env protein (HXB2 Env) (Human immunodeficiency virus type 1 group M subtype B, UniProt P04578); type: cell-based
T1 construct: expressed in transfected cells; host or cells: 293T cells transfected with pIIIenv3-1 plus pCMVTAT; cocultured with 3T3 cells expressing CD4 and CXCR4

89.6 Env = 89.6 Env (Human immunodeficiency virus type 1 group M subtype B, UniProt Q73372); type: cell-based, HIV-1
[2] = molecular target: T2, binding of HIV-1 IIIB gp120 to CD4 (Human immunodeficiency virus type 1 group M subtype B, UniProt P04578); test: gp120-CD4 binding assay (ELISA); conditions: 1 hr at room temperature
T2 construct: The recombinant IIB gp120 protein (baculovirus-expressed) was obtained from Intracel; purchased Intracel (Cambridge, Mass.) for gp120; host or cells: baculovirus-expressed (gp120)
Experimental: To investigate the possible effect of porphyrin compounds on binding of HIV-1 IIIB gp120 to CD4, a gp120 CD4 binding assay was developed. The assay was developed as a modification of a capture gp120 ELISA kit (Intracel Corporation). Briefly, a 96-well plate was coated with soluble CD4 and 0.5 μg of HIV-1 IIIB gp120 per well was incubated in the presence or absence of test compounds for 1 hr at room temperature. After four washes with buffer to remove unbound proteins, the bound gp120 was detected by anti-gp120 peroxidase-conjugated antibodies and quantitated by the protocol provided by the manufacturer.

IIIB Env of HIV 1 = IIIB Env of HIV 1 (Human immunodeficiency virus type 1 group M subtype B, UniProt P03375); type: cell-based

Sequence of 89.6 Env (Q73372 32-719 limits assumed): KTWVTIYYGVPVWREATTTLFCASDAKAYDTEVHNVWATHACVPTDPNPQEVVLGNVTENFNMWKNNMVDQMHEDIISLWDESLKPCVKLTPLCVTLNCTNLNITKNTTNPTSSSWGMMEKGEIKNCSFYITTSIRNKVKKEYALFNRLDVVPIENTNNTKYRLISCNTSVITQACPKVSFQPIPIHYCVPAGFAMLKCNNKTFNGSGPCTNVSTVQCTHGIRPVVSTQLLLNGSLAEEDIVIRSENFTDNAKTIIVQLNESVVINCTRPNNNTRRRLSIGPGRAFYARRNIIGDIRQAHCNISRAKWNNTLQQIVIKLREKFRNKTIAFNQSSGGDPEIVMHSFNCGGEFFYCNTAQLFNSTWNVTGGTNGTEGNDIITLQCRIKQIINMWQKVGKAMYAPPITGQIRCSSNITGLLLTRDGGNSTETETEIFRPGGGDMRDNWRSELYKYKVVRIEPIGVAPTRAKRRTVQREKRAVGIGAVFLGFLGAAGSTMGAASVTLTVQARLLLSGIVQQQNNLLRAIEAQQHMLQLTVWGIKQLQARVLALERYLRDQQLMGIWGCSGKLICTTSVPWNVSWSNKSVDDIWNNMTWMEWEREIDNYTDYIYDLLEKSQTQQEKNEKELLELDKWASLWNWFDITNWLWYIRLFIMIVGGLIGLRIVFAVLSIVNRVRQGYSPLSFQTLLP
Sequence of 89.6 Env (Q73372 509-719 partner limits assumed): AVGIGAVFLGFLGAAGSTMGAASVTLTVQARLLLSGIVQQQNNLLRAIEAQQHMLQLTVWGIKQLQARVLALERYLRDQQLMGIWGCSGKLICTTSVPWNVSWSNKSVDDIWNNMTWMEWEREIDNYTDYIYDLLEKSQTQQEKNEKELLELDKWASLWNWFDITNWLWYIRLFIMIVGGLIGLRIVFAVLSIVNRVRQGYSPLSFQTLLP

Molecule	inhibition of HIV-1 IIIB (percent virus inactivated), screening assay (HIV-1 IIIB)	inactivating HSVs (HSV-1(F) or HSV-2(G))	Presence of nuclei in syncytia, pIIIenv X4, 6 h [1]	Presence of nuclei in syncytia, VV89.6 envt X4, 23 h (89.6 Env)	other results
Cc1cc(C)c(S(=O)(=O)O)c(C)c1-c1c2nc(c(-c3c(C)cc(C)c(S(=O)(=O)O)c3C)c3ccc([n-]3)c(-c3c(C)cc(C)c(S(=O)(=O)O)c3C)c3nc(c(-c4c(C)cc(C)c(S(=O)(=O)O)c4C)c4ccc1[n-]4)C=C3)C=C2.[Co+2] [TMPS,Co]	about 80%	active			
O=C(O)c1ccc(-c2c3nc(c(-c4ccc(C(=O)O)cc4)c4ccc([nH]4)c(-c4ccc(C(=O)O)cc4)c4nc(c(-c5ccc(C(=O)O)cc5)c5ccc2[nH]5)C=C4)C=C3)cc1 [TPPC4]		active			
O=S(=O)(O)c1ccc(-c2c3nc(c(-c4ccc(S(=O)(=O)O)cc4)c4ccc([nH]4)c(-c4ccc(S(=O)(=O)O)cc4)c4nc(c(-c5ccccc5)c5ccc2[nH]5)C=C4)C=C3)cc1.[Cu] [TPPS3,Cu]		active			
O=S(=O)(O)c1ccc(-c2c3nc(c(-c4ccc(S(=O)(=O)O)cc4)c4ccc([nH]4)c(-c4ccc(S(=O)(=O)O)cc4)c4nc(c(-c5ccccc5)c5ccc2[nH]5)C=C4)C=C3)cc1.[Zn] [TPPS3,Zn]		active			
O=S(=O)(O)c1ccc(-c2c3nc(c(-c4ccc(S(=O)(=O)O)cc4)c4ccc([nH]4)c(-c4ccc(S(=O)(=O)O)cc4)c4nc(c(-c5ccc(S(=O)(=O)O)cc5)c5ccc2[nH]5)C=C4)C=C3)cc1 [TPPS4, mesotetra(4-sulfonatophenyl)porphine]	93%		−	−/4+ (key: 4+: more than 50% of nuclei are in syncytia; 3+: 30 to 50% of nuclei are in syncytia; 2+: 30 to 10% of nuclei are in syncytia; +: less than 10% of nuclei are in syncytia; −: no syncytia were observed)	Presence of nuclei in syncytia, VV89.6 envt R5, 23 h (89.6 Env): 1+/4+ (key: 4+: more than 50% of nuclei are in syncytia; 3+: 30 to 50% of nuclei are in syncytia; 2+: 30 to 10% of nuclei are in syncytia; +: less than 10% of nuclei are in syncytia; −: no syncytia were observed); Presence of nuclei in syncytia, VV89.6 envt X4, 6 h (89.6 Env): −/4+
O=S(=O)(O)c1ccc(C2=C3C=CC(=N3)[C-](c3ccc(S(=O)(=O)O)cc3)C3=NC(=C(c4ccc(S(=O)(=O)O)cc4)c4[cH-]cc(n4)C(c4ccc(S(=O)(=O)O)cc4)=C4C=CC2=N4)C=C3)cc1.[Cu+2] (stereo not shown) [TPPS4,Cu]	97%	active	−		inhibition of gp120/CD4 binding [2]: 80-100%; activity against HIV in words (HIV-1 IIIB): intermediate levels of activity; inhibition of HIV-induced cell fusion in words (IIIB Env of HIV 1): Complete inhibition
O=S(=O)(O)c1ccc(-c2c3nc(c(-c4ccc(S(=O)(=O)O)cc4)c4ccc([n-]4)c(-c4ccc(S(=O)(=O)O)cc4)c4ccc([n-]4)c(-c4ccc(S(=O)(=O)O)cc4)c4nc2C=C4)C=C3)cc1.[Ni+2] [TPPS4,Ni]				−/3+ (key: 4+: more than 50% of nuclei are in syncytia; 3+: 30 to 50% of nuclei are in syncytia; 2+: 30 to 10% of nuclei are in syncytia; +: less than 10% of nuclei are in syncytia; −: no syncytia were observed)	Presence of nuclei in syncytia, VV89.6 envt R5, 6 h (89.6 Env): −/1+; Presence of nuclei in syncytia, VV89.6 envt X4, 6 h (89.6 Env): −/3+
O=S(=O)(O)c1ccc(-c2c3nc(c(-c4ccc(S(=O)(=O)O)cc4)c4ccc([n-]4)c(-c4ccc(S(=O)(=O)O)cc4)c4nc(c(-c5ccc(S(=O)(=O)O)cc5)c5ccc2[n-]5)C=C4)C=C3)cc1.[Pd+2] [TPPS4,Pd]			−	−/4+ (key: 4+: more than 50% of nuclei are in syncytia; 3+: 30 to 50% of nuclei are in syncytia; 2+: 30 to 10% of nuclei are in syncytia; +: less than 10% of nuclei are in syncytia; −: no syncytia were observed)	Presence of nuclei in syncytia, VV89.6 envt R5, 6 h (89.6 Env): −/4+; Presence of nuclei in syncytia, VV89.6 envt R5, 23 h (89.6 Env): −/4+ (key: 4+: more than 50% of nuclei are in syncytia; 3+: 30 to 50% of nuclei are in syncytia; 2+: 30 to 10% of nuclei are in syncytia; +: less than 10% of nuclei are in syncytia; −: no syncytia were observed); Presence of nuclei in syncytia, VV89.6 envt X4, 6 h (89.6 Env): −/4+
O=S(=O)(O)c1ccc(-c2c3nc(c(-c4ccc(S(=O)(=O)O)cc4)c4ccc([nH]4)c(-c4ccc(S(=O)(=O)O)cc4)c4nc(c(-c5ccc(S(=O)(=O)O)cc5)c5ccc2[nH]5)C=C4)C=C3)cc1.[Zn] [TPPS4,Zn]		active			
O=S(=O)(O)c1ccc(Cl)c(-c2c3nc(c(-c4c(Cl)ccc(S(=O)(=O)O)c4Cl)c4ccc([nH]4)c(-c4c(Cl)ccc(S(=O)(=O)O)c4Cl)c4nc(c(-c5c(Cl)ccc(S(=O)(=O)O)c5Cl)c5ccc2[nH]5)C=C4)C=C3)c1Cl [tetrakis(2,6dichlorosulfonatonatophenyl)porphyrin]		active			
sulfonated 2,6-difluoroTPP [TPP(2,6-F2)S]		active	−	1+/4+ (key: 4+: more than 50% of nuclei are in syncytia; 3+: 30 to 50% of nuclei are in syncytia; 2+: 30 to 10% of nuclei are in syncytia; +: less than 10% of nuclei are in syncytia; −: no syncytia were observed)	inhibition of gp120/CD4 binding in words [2]: completely inhibit binding; Presence of nuclei in syncytia, VV89.6 envt R5, 23 h (89.6 Env): 1+/4+ (key: 4+: more than 50% of nuclei are in syncytia; 3+: 30 to 50% of nuclei are in syncytia; 2+: 30 to 10% of nuclei are in syncytia; +: less than 10% of nuclei are in syncytia; −: no syncytia were observed); activity against HIV in words (HIV-1 IIIB): most active
sulfonated 2-fluoroTPP [TPP2FS]	about 80%	active	−	1+/4+ (key: 4+: more than 50% of nuclei are in syncytia; 3+: 30 to 50% of nuclei are in syncytia; 2+: 30 to 10% of nuclei are in syncytia; +: less than 10% of nuclei are in syncytia; −: no syncytia were observed)	inhibition of gp120/CD4 binding [2]: 81%; Presence of nuclei in syncytia, VV89.6 envt R5, 6 h (89.6 Env): 4+/4+ (key: 4+: more than 50% of nuclei are in syncytia; 3+: 30 to 50% of nuclei are in syncytia; 2+: 30 to 10% of nuclei are in syncytia; +: less than 10% of nuclei are in syncytia; −: no syncytia were observed); Presence of nuclei in syncytia, VV89.6 envt R5, 23 h (89.6 Env): 4+/4+ (key: 4+: more than 50% of nuclei are in syncytia; 3+: 30 to 50% of nuclei are in syncytia; 2+: 30 to 10% of nuclei are in syncytia; +: less than 10% of nuclei are in syncytia; −: no syncytia were observed); Presence of nuclei in syncytia, VVenvl X4, 6 h (IIIB Env of HIV 1): −/4+; Presence of nuclei in syncytia, VVenvl X4, 23 h (IIIB Env of HIV 1): −/4+ (key: 4+: more than 50% of nuclei are in syncytia; 3+: 30 to 50% of nuclei are in syncytia; 2+: 30 to 10% of nuclei are in syncytia; +: less than 10% of nuclei are in syncytia; −: no syncytia were observed)
sulfonated 4-chloroTPP [TPP4ClS]	about 97%				inhibition of gp120/CD4 binding [2]: 85%; activity against HIV in words (HIV-1 IIIB): most active
tetrakis(2-chlorosulfonatophenyl)porphyrin		active			
tetrakis(2-fluorosulfonatonatophenyl)porphyrin,Cu		active			

Reference: patent US20050090428A1, “Porphyrins with virucidal activity” (priority 2002, published 2005)
